Source: patent US6794409B2, “Use of ERβ-selective ligands for regulating fertility and compounds useful therefor” (priority 2001, dated 2004)
Where two headings read alike, the source gives them in different places.

What was measured:
[1] = system: hERβ; assay: Relative binding affinity to hERβ (Kuiper et al.); parameters: species or system human; details: quotient of RBA hERβ / hERα
Excerpt: (§1) In this case, it is assumed that ERβ predominates in the rat prostates over ERα, and ERα predominates in rat uteri over ERβ.

[2] = system: estrogen receptor preparations from rat uteri; assay: Competitive 3H-estradiol binding, rat uterus cytosol; details: 3H-estradiol as ligand, estradiol = 100
Excerpt: as §1

[3] = system: estrogen receptor preparations from rat prostates; assay: Competitive 3H-estradiol binding, rat prostate cytosol
Excerpt: as §1

[4] = system: hERβ; details: cited from earlier work
[5] = system: hypophysectomized immature female Wistar rats; assay: Effect on late folliculogenesis and ovulation in hypophysectomized rats; type: in vivo, rat; details: hypex immature Wistar rats; 0.01, 0.1 and 1 mg/day s.c. for 4 days, then PMSG and hCG; FIG. 3
Experimental: Intact immature female Wistar rats were hypophysectomized (hypex) on day 24 of age (day 0). The following hormone treatments were initiated six days after surgery:
(§2) (a) hypex rats treated with vehicle (control group) (ethanol/arachisoil: 1+9 [v/v]) only
(b) hypex rats treated with 0.01, 0.1 and 1 mg 17β-estradiol/day
(c) hypex rats treated with 0.01, 0.1 and 1 mg of the ERα-selective compound B
(d) hypex rats treated with 0.01, 0.1 and 1 mg of the […] compound C
Animals were subcutaneously treated once per day for 4 consecutive days with the respective compounds or vehicle (day 6, 7, 8, 9). Number of animals per group were […]. The animals were randomly assigned to the treatment and vehicle (control) group.
One day after the last injection (day 10) animals were subcutaneously injected with 20 IU prgenant mare serum gonadotropin (PMSG). Two days later, at […], 10 IU human Chorionic Gonadotropin (hCG) were injected intraperitoneally in order to induce ovulation. At day 14 animals were weighed and sacrificed by carbon dioxide asphyxiation. The oviducts and ovaries were removed:
The oviducts were flushed with a M-2 medium and the oocytes per animal were counted after enzymatic disassociation from the surrounding cumulus with M-2 medium supplemented with 0.3% hyaluironidase. For each treatment group and control group the mean number of ovulated oocytes were calculated.
The ovaries were excised and weighed. Relative ovarian weights (in milligrams), defined as relative ovarian wet weights, were calculated per 100 g body weight for each animal. For each treatment group and control group the mean relativewet weights were determined.
The one way ANOVA was applied to the data in order to compare treatment group values with the respective control group.

[6] = system: intact immature female Wistar rats; assay: Effect on ovulation rate after superovulation (PMSG/hCG) of immature rats; type: in vivo, rat
Experimental: Superovulation experiments were carried out in three groups of intact immature female Wistar rats on day 23 of age. Number of animals per group were 5. The animals were randomly assigned to the three groups.
Each animal received a single subcutaneous (s.c.) injection of 20 I.U. pregnant mare's serum gonadotropin (PMSG) at day 0. At the same time (day 0) as well as 24 hours and 48 hours later the animals were s.c. injected with
(a) the vehicle formulation (control group: ethanol/aracisoil: 1+9 [v/v]) (group 1) or
(b) an ERβ- selective antagonist 17-Chloro-17aα-(trifluoromethyl)-17a-homoestra-1,3,5(10)16-tetraene-3,17aβ-diol (compound E) at the dose of 1 mg/kg (group 2) and 10 mg/kg (group 3). 54 hours after the start of the experiment the animals got a single intraperitoneal (i.p.) injection of 10 I.U. human chorion gonadotropin (hCG). The animals were then killed 16 hours after the hCG injection.
The ovaries and oviducts were removed. The ovulated oocyte/cumulus mass was extracted from the oviduct by flushing the oviduct with M-2 medium and the oocytes per animal were counted after enzymatic disassociation from the surrounding cumulus with M-2 medium supplemented with 0.3% hyaluronidase.

[7] = system: hypophysectomized immature female Wistar rats; assay: Effect of ER-selective ligands on folliculogenesis in hypophysectomized rats; type: in vivo, rat; details: hypex immature Wistar rats
Excerpt: Intact immature female Wistar rats were hypophysectomized (hypex) on day 24 of age (d0). The following hormone treatments were initiated six days after surgery:
as §2
Animals were subcutaneously treated once per day for 4 consecutive days with the respective compounds or vehicle (day 6, 7, 8, 9). Number of animals per group were 5-6. The animals were randomly assigned to the treatment and vehicle (control) group.
One day after the last injection (day 10) animals were weighed and sacrificed by carbon dioxide asphyxiation. The ovaries were excised and weighed. Relative ovarian weights (in milligrams), defined as relative ovarian wet weights, were calculated per 100 g body weight for each animal. For each treatment group and control group the mean relative wet weights were determined. The one way ANOVA was applied to the data in order to compare treatment group values with the respective control group.
For histological evaluation, ovaries were placed in neutral buffered 3.7% formaldehyde solution. The ovaries were then embedded in paraffin, cut into 4 μm transverse sections, and stained with hematoxylin and eosin. Ovarian sections were then evaluated qualitatively for folliculogenesis.

## C[C@]12CC[C@H]3[C@@H](CC=C4C[C@@H](O)CC[C@@]43C)[C@@H]1CC[C@@H]2O [5-Androstenediol]
[1]
  ERβ/ERα: 3
[2]
  Rat uterus ER(RBA): 0.1
[3]; rat prostate cytosol, 3H-estradiol as ligand, estradiol = 100
  Rat prost. ER(RBA): 5
[3]; ratio of RBA rat prostate ER / rat uterus ER
  prost. ER/uterus ER: 50
[4]
  hERβ RBA: 17

## C=C[C@@]12CCc3cc(O)ccc3[C@H]1CC[C@@]1(C)[C@H]2CC[C@@H]1O [compound C, 8β-Vinyl-1,3,5(10)-estratriene-3,17β-diol]
[5]
  number of ovulated oocytes: significantly increase the number of ovulated oocytes
  ovarian wet weight: significantly increase

## C[C@]12CC[C@@H]3c4ccc(O)cc4CC[C@H]3[C@@H]1C[C@@H](O)[C@@H]2O [Estriol]
[4]; relative binding affinity, estradiol = 100
  hERβ RBA: 21

## CC12CCC3c4ccc(O)cc4CCC3C1CC=C(Cl)C2(O)C(F)(F)F (stereo not drawn) [compound E, 17-Chloro-17aα-(trifluoromethyl)-17a-homoestra-1,3,5(10)16-tetraene-3,17aβ-diol]
[6]; 1 mg/kg/day × 3 days s.c., group 2
  Ovulation rate (ova/rat) [x ± sd]: 11 ± 5.6 ova/rat
[6]; 10 mg/kg/day × 3 days s.c., group 3
  Ovulation rate (ova/rat) [x ± sd]: 8 ± 7.2 ova/rat
[6]; 10 mg/kg/day × 3 days s.c., group 3, listed as ERβ-specific antagonist
  Ovulation rate (ova/rat) [x ± sd]: 8.0 ova/rat

## C[C@]12CC[C@@H]3c4ccc(O)cc4CC[C@H]3[C@@H]1C[C@H]1OC(=O)C[C@]12O [compound B, 3,17β-Dihydroxy-19-nor-17α-pregna-1,3,5(10)-triene-21,16α-lactone]
[7]; 0.01, 0.1 and 1 mg/day s.c. for 4 days, FIG. 1
  ovarian wet weight: not able to stimulate ovarian growth
[7]; s.c. for 4 days, hematoxylin and eosin sections, FIG. 2
  folliculogenesis, histological evaluation of ovaries: many small atretic follicles comparable to the vehicle control group
[5]
  number of ovulated oocytes: not able to significantly stimulate
  ovarian wet weight: not able to significantly stimulate
